Assay results as given in patent publication US5620864A, “Acceptor for fucosyl transferase” (Health Research, Inc., priority 1992, dated 1997).
Several values for one entry are separate records, joined by “and”; a condition that tells them apart may be missing. Equal values may be shown once.

Key:
[1] = system: serum α1,3-L-fucosyltransferase; experiment: Acceptor ability in presence of the competitive substrate (3'-sulfo LacNAc vs 2'-methyl LacNAc), ovarian cancer sera; type: biochemical, human; conditions: for Km: serum enzyme
Experimental: (§1) An incubation mixture contained 50 mM HEPES-NaOH, pH 7.5, 5 mM MnC12, 7 mM ATP, 3 mM NaN3, the acceptor 0.3 mM (for serum enzyme) or 3.0 mM (for tumor enzyme), 0.125 μCi of GDP-[U-^14 C] Fuc (Sp. Act. 216 mCi/mmol) and enzyme in a total volume of 0.10 ml; the control incubation mixture had everything except the acceptor. At the end of incubation at 37° C. for 18 h, the mixture was diluted with 1 ml water and passed through Dowex-1-C1 column (1 ml in a Pasteur pipet). The column was washed twice with 1 ml water; the breakthrough and wash, which contained the [^14 C] fucosylated neutral acceptor, were collected together in a scintillation vial and counted for radioactivity using the scintillation coctail 3a70 (Research Products International, Mount Prospects, Ill.) and Beckman LS9000. The Dowex column was then eluted successively with 3 ml each of 0.1M and 0.2M NaCl; these eluates which contained the [^14 C] fucosylated sulfated acceptors, were counted for radioactivity as before. Corrections were made by subtracting the radioactivity in the water and NaCl eluates of the control incubation mixture from the corresponding test fractions. The duplicate runs of samples gave almost identical values, the difference being <5%.
(§2) The superiority of 3'-sulfo LacNAc over 2'-methyl LacNAc as the substrate for measuring serum α1,3 fucosyltransferase was tested in three different ways. First, the incubation mixtures in duplicate contained 0.3 mM 3'-sulfo LacNAc and varying amounts of 2'-methyl LacNAc (0 to 7.5 mM); the incorporation of [^14 C] fucose by the serum enzyme into both substrates was measured (Table III). The incorporation of [^14 C] fucose into 3'-sulfo LacNAc decreased and into 2'-methyl LacNAc increased with the increase in the concentration of the latter. […] 25 fold less than 2' methyl LacNAc. Secondly, the incubation mixtures in duplicate contained 3.0 mM 2'-methyl LacNAc and varying amounts of 3'-sulfo LacNAc (0 to 0.75 mM); the incorporation of [^14 C] fucose by the same serum enzyme into both substrates was measured (Table III). The [^14 C] fucose incorporation into 2'-methyl LacNAc decreased and into 3'-sulfo LacNAc increased by increasing the concentration of the latter. […] Thirdly, both 2'-methyl LacNAc and 3'-sulfo LacNAc at 0.3 mM concentration were incubated separately in duplicates with six ovarian cancer sera and one normal serum; the incorporation of [^14 C] fucose into these acceptors were quantitated (Table IV). The [^14 C] fucose incorporation into 3'-sulfo LacNAc was consistently higher (4-5 fold) than that into 2'-methyl LacNAc, including the assay of the normal serum. […] These values indicate that 3'-sulfo LacNAc is a very high affinity acceptor for α1,3 fucosyltransferase. The [^14 C] fucosylated product arising from 3'-sulfo LacNAc has been tentatively identified as 3'-sulfo, 3-fucosyl LacNAc by comparing strictly its mobility on paper with the synthetic authentic compound 3'-sulfo, 3-fucosyl LacNAc (see FIG. 5).

[2] = molecular target: T1, serum α1,3-L-fucosyltransferase (Homo sapiens, UniProt P51993); experiment: Detection of serum α1,3-L-fucosyltransferase in six ovarian cancer sera and one normal serum; type: biochemical; conditions: for percentage of the ratio between the CPM obtained for cancer serum and normal serum: acceptor 0.30 mM; for α1,3 fucosyltransferase activity of the cancer sera as compared to the normal serum: range over six ovarian cancer sera, acceptor 0.3 mM
T1 construct: Sera were collected from healthy females and ovarian cancer patients; from tissue; host or cells: blood serum of ovarian cancer patients and healthy females
T1 sequence (P51993 35-359 limits assumed): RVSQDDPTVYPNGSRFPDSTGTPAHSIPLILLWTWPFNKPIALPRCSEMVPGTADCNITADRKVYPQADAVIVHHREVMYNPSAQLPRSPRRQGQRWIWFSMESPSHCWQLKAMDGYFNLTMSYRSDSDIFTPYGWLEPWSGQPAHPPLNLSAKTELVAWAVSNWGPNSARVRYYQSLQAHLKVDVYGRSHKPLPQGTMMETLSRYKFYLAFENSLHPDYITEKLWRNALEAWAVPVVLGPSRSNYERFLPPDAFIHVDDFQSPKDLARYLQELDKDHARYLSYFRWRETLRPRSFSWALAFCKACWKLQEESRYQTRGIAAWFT
Experimental: Sera were collected from healthy females and ovarian cancer patients admitted to Roswell Park Cancer Institute in Buffalo, N.Y., USA. Ovarian tumor tissues were obtained during surgical procedures from patients with ovarian cancer. Both sera and tissues were stored frozen at -70° C. until use.
as §1, §2

[3] = 2'-Methyl LacNAc 3.0 mM + 3'-Sulfo LacNAc 0 mM
[4] = 2'-Methyl LacNAc 3.0 mM + 3'-Sulfo LacNAc 0.15 mM
[5] = 2'-Methyl LacNAc 3.0 mM + 3'-Sulfo LacNAc 0.30 mM
[6] = 2'-Methyl LacNAc 3.0 mM + 3'-Sulfo LacNAc 0.45 mM
[7] = 2'-Methyl LacNAc 3.0 mM + 3'-Sulfo LacNAc 0.65 mM
[8] = 2'-Methyl LacNAc 3.0 mM + 3'-Sulfo LacNAc 0.75 mM
[9] = 3'-Sulfo LacNAc 0.3 mM + 2'-Methyl LacNAc 0 mM
[10] = 3'-Sulfo LacNAc 0.3 mM + 2'-Methyl LacNAc 1.5 mM
[11] = 3'-Sulfo LacNAc 0.3 mM + 2'-Methyl LacNAc 3.0 mM
[12] = 3'-Sulfo LacNAc 0.3 mM + 2'-Methyl LacNAc 4.5 mM
[13] = 3'-Sulfo LacNAc 0.3 mM + 2'-Methyl LacNAc 6.0 mM
[14] = 3'-Sulfo LacNAc 0.3 mM + 2'-Methyl LacNAc 7.5 mM

Incorporation of [14C] Fucose (CPM) [1, 3] [CPM]	Incorporation of [14C] Fucose (CPM) [1, 4] [CPM]	Incorporation of [14C] Fucose (CPM) [1, 5] [CPM]	Incorporation of [14C] Fucose (CPM) [1, 6] [CPM]	Incorporation of [14C] Fucose (CPM) [1, 7] [CPM]	Incorporation of [14C] Fucose (CPM) [1, 8] [CPM]	Incorporation of [14C] Fucose (CPM) [1, 9] [CPM]	Incorporation of [14C] Fucose (CPM) [1, 10] [CPM]	Incorporation of [14C] Fucose (CPM) [1, 11] [CPM]	Incorporation of [14C] Fucose (CPM) [1, 12] [CPM]	Incorporation of [14C] Fucose (CPM) [1, 13] [CPM]	Incorporation of [14C] Fucose (CPM) [1, 14] [CPM]	Incorporation of [14C] Fucose (CPM) into the Acceptor (0.30 mM) ([2]; Normal Serum) [CPM]	Incorporation of [14C] Fucose (CPM) into the Acceptor (0.30 mM) ([2]; Ovarian Cancer Serum 1) [CPM]	percentage of the ratio between the CPM obtained for cancer serum and normal serum ([2]; Ovarian Cancer Serum 1) [%]	Incorporation of [14C] Fucose (CPM) into the Acceptor (0.30 mM) ([2]; Ovarian Cancer Serum 2) [CPM]	percentage of the ratio between the CPM obtained for cancer serum and normal serum ([2]; Ovarian Cancer Serum 2) [%]	Incorporation of [14C] Fucose (CPM) into the Acceptor (0.30 mM) ([2]; Ovarian Cancer Serum 3) [CPM]	percentage of the ratio between the CPM obtained for cancer serum and normal serum ([2]; Ovarian Cancer Serum 3) [%]	Incorporation of [14C] Fucose (CPM) into the Acceptor (0.30 mM) ([2]; Ovarian Cancer Serum 4) [CPM]	SMILES	other results
140	1294	2181	2417	2373	2560	2520	2132	1872	1748	1712	1428	1543	7310	474	9816	636	5261	341	5480	CC(=O)N[C@H]1C(O)O[C@H](CO)[C@@H](O[C@@H]2O[C@H](CO)[C@H](O)[C@H](OS(=O)(=O)O)[C@H]2O)[C@@H]1O (stereo partly drawn) [3'-Sulfo-LacNAc, SODIUM β-D-GALACTOPYRANOSYL 3-SULFATE-(1→4)-2-ACETAMIDO-2-DEOXY-D-GLUCOPYRANOSE]	inhibition of the [14C] fucose incorporation into 2'-methyl LacNAc ([1]; 3'-Sulfo LacNAc 0.75 mM, 2'-methyl LacNAc 3.0 mM): 68%; Km ([1]; 3'-sulfo LacNAc in presence of 3.0 mM 2'-methyl LacNAc): 0.12 mM; Ratio B/A (CPM into 3'-Sulfo LacNAc / CPM into 2'-Methyl LacNAc) ([2]; Normal Serum): 3.89; Ratio B/A (CPM into 3'-Sulfo LacNAc / CPM into 2'-Methyl LacNAc) ([2]; Ovarian Cancer Serum 1): 5.52; Ratio B/A (CPM into 3'-Sulfo LacNAc / CPM into 2'-Methyl LacNAc) ([2]; Ovarian Cancer Serum 2): 6.69; Ratio B/A (CPM into 3'-Sulfo LacNAc / CPM into 2'-Methyl LacNAc) ([2]; Ovarian Cancer Serum 3): 3.87; Ratio B/A (CPM into 3'-Sulfo LacNAc / CPM into 2'-Methyl LacNAc) ([2]; Ovarian Cancer Serum 4): 4.06; percentage of the ratio between the CPM obtained for cancer serum and normal serum ([2]; Ovarian Cancer Serum 4): 355%; Incorporation of [14C] Fucose (CPM) into the Acceptor (0.30 mM) ([2]; Ovarian Cancer Serum 5): 3088 CPM; Ratio B/A (CPM into 3'-Sulfo LacNAc / CPM into 2'-Methyl LacNAc) ([2]; Ovarian Cancer Serum 5): 4.42; percentage of the ratio between the CPM obtained for cancer serum and normal serum ([2]; Ovarian Cancer Serum 5): 200%; Incorporation of [14C] Fucose (CPM) into the Acceptor (0.30 mM) ([2]; Ovarian Cancer Serum 6): 5483 CPM; Ratio B/A (CPM into 3'-Sulfo LacNAc / CPM into 2'-Methyl LacNAc) ([2]; Ovarian Cancer Serum 6): 5.62; percentage of the ratio between the CPM obtained for cancer serum and normal serum ([2]; Ovarian Cancer Serum 6): 355%; sensitivity / [14C] fucose incorporation relative to 2'-methyl LacNAc ([2]; blood sera, acceptors 0.3 mM): 3 to 5 fold and 4-5 fold; α1,3 fucosyltransferase activity of the cancer sera as compared to the normal serum [2]: 200%-636%
3664	2581	2191	1737	1184	1187	157	1143	1614	1973	2698	2788	397	1325	334	1724	434	1359	342	1347	CO[C@H]1[C@H](O[C@H]2[C@H](O)[C@@H](NC(C)=O)C(O)O[C@@H]2CO)O[C@H](CO)[C@H](O)[C@@H]1O (some centres unmarked) [2'-methyl LacNAc]	inhibition of the [14C] fucose incorporation into 3'-sulfo LacNAc ([1]; 2'-methyl LacNAc 7.5 mM, 3'-sulfo LacNAc 0.3 mM): 43%; Km ([1]; 2'-methyl LacNAc in presence of 0.3 mM 3'-sulfo LacNAc): 6.67 mM; inhibition by 2'-methyl LacNAc of incorporation into 3'-sulfo LacNAc ([1]; 3'-sulfo LacNAc present at 3.0 mM): no inhibition; percentage of the ratio between the CPM obtained for cancer serum and normal serum ([2]; Ovarian Cancer Serum 4): 339%; Incorporation of [14C] Fucose (CPM) into the Acceptor (0.30 mM) ([2]; Ovarian Cancer Serum 5): 699 CPM; percentage of the ratio between the CPM obtained for cancer serum and normal serum ([2]; Ovarian Cancer Serum 5): 176%; Incorporation of [14C] Fucose (CPM) into the Acceptor (0.30 mM) ([2]; Ovarian Cancer Serum 6): 975 CPM; percentage of the ratio between the CPM obtained for cancer serum and normal serum ([2]; Ovarian Cancer Serum 6): 246%; α1,3 fucosyltransferase activity of the cancer sera as compared to the normal serum [2]: 176%-434%
